Reference: ChEMBL document CHEMBL1201862, “PubChem BioAssay data set” (2004)
Activity calls are given as the source filed them.

Tests used:
[1] = target: Luciferin 4-monooxygenase (Photinus pyralis, UniProt P08659); assay: inhibition of purified Photinus pyralis luciferase – biochemical, luminescence, dose response (AID 1891)
[2] = Luminescence Cell-Based Dose Confirmation HTS to Identify Inhibitors of Platelet Dense Granule Release. [Related pubchem assays: 1663 (Primary HTS), 1678 (Summary of Project)]; assay type: functional
[3] = target: T1, Corticotropin-releasing factor receptor 2/Corticotropin-releasing factor-binding protein (Homo sapiens, UniProt P24387+Q13324); assay: Dose Response confirmation of uHTS hits for small molecule antagonists of the CRF-binding protein and CRF-R2 receptor complex.; assay type: functional; conditions: read-out: IC50_Mean
T1 sequence (Q13324 whole entry): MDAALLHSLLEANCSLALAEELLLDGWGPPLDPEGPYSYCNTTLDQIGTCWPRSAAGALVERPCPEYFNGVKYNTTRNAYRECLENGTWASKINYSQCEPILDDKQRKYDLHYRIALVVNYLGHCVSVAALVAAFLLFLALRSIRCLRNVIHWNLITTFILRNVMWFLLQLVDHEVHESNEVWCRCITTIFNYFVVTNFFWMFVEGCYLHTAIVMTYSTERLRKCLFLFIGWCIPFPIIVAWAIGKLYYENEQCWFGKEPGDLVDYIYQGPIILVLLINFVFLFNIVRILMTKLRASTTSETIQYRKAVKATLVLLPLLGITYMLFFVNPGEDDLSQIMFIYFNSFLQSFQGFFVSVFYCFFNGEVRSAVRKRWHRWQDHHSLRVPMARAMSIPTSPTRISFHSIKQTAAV
T1 sequence (P24387 whole entry): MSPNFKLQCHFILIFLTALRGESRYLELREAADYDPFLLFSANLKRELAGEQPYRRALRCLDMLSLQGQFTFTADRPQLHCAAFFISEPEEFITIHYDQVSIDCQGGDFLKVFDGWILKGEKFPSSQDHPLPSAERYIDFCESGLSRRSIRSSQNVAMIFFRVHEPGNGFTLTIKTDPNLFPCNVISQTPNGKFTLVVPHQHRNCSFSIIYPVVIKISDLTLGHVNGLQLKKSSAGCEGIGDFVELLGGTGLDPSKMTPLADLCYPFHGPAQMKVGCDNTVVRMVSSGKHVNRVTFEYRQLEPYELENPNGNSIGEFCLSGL

[4] = target: T1, Corticotropin-releasing factor receptor 2/Corticotropin-releasing factor-binding protein; assay: activators of CRF receptor 2 with binding protein – uHTS hits, confirmation (AID 602473); assay type: functional; conditions: read-out: EC50_Mean
Nonstructural protein 1 = Nonstructural protein 1 (Influenza A virus, UniProt Q194T2); assay type: functional, Influenza A virus (A/California/07/2009(H1N1))
Chain of Nonstructural protein 1 (Q194T2 whole entry): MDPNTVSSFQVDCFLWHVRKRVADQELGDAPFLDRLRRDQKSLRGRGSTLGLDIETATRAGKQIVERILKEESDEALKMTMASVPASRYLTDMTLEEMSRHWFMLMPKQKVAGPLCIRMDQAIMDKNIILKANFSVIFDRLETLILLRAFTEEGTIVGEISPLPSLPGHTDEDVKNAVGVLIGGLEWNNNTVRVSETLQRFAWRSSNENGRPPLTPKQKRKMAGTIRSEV

[5] = Luminescence Cell-Based Dose Confirmation HTS to Identify Activators of 5'UTR Stem-Loop Driven Alpha-Synuclein mRNA Translation in H4 Neuroglioblastoma Cells. [Related pubchem assays: 1829 (Project Summary), 1814 (Primary HTS)]; assay type: functional
[6] = Luminescence Cell-Based Dose Response HTS to Identify Activators of Luciferase Translation or Activity in H4 […] Cells. [Related pubchem assays: 1829 (Project Summary), 1814 (Primary HTS)]; assay type: functional
H4 = assay: Luminescence Cell-Based Dose Response HTS to Identify Activators of 5'UTR Stem-Loop Driven Prion Protein mRNA Translation in H4 Neuroglioblastoma Cells. [Related pubchem assays: 1829 (Project Summary), 1814 (Primary HTS)]; assay type: functional; conditions: Homo sapiens
[7] = target: T2, Heat shock factor protein 1 (Mus musculus, UniProt P38532); assay: decrease of HSF1-responsive luciferase luminescence – cell-based, NIH3T3, dose retest, confirmation (AID 2382); assay type: functional;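 further: NIH3T3 fibroblasts with HSF1-driven luciferase reporter stressed by proteasome inhibitor MG132; luminescence from HSF1-driven luciferase expression after 8 hours of MG132 stress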
T2 sequence (P38532 whole entry): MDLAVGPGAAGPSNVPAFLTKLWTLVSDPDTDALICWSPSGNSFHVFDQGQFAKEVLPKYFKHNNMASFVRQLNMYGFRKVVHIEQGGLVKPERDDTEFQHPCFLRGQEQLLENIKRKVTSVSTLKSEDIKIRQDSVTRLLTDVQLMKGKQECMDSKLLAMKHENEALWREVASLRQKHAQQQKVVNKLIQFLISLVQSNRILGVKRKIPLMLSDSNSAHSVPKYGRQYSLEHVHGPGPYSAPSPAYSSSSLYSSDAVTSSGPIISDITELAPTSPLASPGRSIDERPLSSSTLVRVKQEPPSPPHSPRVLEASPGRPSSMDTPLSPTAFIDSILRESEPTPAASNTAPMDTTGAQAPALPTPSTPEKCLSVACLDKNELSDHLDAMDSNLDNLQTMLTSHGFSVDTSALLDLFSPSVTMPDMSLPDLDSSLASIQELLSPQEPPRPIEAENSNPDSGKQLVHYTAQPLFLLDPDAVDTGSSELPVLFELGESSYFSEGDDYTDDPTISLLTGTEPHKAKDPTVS

[8] = viability of uninfected HEp-2 cells – cell-based, HTS, cytotoxicity control for RSV inhibitor project, dose response (AID 2410); assay type: functional; conditions: human respiratory syncytial virus
Fatty acid synthase [9] = target: T3, Fatty acid synthase (Homo sapiens, UniProt P49327); assay: inhibition of human FAS-TE enzyme activity – biochemical, endpoint fluorescence intensity, uHTS hits, dose response (AID 624327); assay type: functional;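 further: fluorescence from hydrolysis of an O-methyl fluorescein acyl ester substrate by the enzyme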
T3 sequence (P49327 whole entry): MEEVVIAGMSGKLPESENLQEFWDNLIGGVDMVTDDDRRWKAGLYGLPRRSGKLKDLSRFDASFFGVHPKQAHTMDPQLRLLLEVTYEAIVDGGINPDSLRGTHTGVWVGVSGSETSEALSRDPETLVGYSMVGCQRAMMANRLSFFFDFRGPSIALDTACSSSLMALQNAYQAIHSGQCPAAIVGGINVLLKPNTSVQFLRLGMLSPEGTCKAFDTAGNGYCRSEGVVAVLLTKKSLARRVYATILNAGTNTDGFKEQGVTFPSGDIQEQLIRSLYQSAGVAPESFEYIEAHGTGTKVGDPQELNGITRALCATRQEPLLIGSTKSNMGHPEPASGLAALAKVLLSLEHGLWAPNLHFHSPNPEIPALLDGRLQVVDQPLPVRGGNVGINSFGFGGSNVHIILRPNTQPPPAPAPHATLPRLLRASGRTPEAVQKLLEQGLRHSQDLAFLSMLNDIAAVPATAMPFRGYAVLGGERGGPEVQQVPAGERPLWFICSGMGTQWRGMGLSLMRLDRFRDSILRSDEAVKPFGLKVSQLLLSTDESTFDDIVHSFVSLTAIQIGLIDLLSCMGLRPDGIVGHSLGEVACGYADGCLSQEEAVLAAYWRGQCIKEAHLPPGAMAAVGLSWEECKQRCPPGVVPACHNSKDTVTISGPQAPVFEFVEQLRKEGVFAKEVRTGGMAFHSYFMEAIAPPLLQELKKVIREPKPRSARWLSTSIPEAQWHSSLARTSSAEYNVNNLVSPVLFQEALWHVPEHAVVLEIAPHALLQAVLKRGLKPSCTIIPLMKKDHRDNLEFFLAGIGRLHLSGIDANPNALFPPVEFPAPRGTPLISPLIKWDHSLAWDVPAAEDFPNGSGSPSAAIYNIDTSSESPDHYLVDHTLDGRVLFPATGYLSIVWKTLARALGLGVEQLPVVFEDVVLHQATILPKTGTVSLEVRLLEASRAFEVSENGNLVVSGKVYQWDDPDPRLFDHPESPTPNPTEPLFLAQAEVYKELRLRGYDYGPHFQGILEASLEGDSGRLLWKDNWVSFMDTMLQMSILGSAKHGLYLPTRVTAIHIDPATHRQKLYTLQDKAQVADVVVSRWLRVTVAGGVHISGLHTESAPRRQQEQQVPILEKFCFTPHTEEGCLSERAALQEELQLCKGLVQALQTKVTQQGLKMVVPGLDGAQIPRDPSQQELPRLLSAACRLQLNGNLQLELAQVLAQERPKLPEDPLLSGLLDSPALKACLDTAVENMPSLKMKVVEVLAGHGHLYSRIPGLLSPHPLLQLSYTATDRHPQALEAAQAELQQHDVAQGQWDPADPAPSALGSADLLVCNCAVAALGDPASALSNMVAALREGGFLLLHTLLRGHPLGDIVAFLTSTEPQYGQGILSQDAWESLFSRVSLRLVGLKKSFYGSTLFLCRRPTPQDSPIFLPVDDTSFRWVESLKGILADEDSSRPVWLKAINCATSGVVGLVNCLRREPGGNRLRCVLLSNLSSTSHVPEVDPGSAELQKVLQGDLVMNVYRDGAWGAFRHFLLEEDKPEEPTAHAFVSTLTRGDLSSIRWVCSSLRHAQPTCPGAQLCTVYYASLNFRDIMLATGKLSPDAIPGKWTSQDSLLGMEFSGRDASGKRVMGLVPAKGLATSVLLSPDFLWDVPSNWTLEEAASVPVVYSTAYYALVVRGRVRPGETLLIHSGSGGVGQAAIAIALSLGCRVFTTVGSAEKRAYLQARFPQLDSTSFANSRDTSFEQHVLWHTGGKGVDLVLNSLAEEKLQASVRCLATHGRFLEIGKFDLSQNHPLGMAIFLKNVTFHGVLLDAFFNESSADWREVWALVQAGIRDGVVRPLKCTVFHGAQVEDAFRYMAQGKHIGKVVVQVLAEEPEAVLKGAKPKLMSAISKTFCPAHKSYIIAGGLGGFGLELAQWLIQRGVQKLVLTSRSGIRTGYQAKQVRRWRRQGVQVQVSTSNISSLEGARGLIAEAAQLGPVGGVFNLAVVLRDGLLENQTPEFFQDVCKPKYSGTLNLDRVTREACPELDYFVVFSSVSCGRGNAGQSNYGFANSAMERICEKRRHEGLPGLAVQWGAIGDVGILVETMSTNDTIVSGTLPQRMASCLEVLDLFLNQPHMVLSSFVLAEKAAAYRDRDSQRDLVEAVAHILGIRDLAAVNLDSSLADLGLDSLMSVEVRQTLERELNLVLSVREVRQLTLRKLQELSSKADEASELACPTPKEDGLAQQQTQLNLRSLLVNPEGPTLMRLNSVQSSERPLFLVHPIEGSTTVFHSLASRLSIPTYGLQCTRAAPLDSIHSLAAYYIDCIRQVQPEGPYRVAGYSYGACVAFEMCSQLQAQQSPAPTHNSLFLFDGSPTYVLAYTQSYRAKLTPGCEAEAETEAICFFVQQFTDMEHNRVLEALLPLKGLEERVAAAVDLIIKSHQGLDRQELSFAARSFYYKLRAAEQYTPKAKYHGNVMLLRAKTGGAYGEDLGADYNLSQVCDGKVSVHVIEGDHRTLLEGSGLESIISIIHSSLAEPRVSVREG

Fatty acid synthase [10] = target: T3, Fatty acid synthase; assay: inhibition of human FAS-TE enzyme activity – biochemical, kinetic fluorescence intensity, dose response (AID 624326); assay type: functional;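 further: rate of fluorescence rise from hydrolysis of a fluorogenic O-methyl fluorescein ester substrate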
INS1 = assay: INS-1E survival protection against cytokine death – cell-based, luminescence, retest, dose response (AID 449756); assay type: functional; conditions: Rattus norvegicus;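 further: cell death triggered by IL-1 beta plus TNF-alpha plus IFN-gamma mixture; protective hits raise ATP signal compared with cytokine alone wells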
[11] = Luminescence Cell-Based Dose Retest to Confirm Inhibitors of Cancer Stem Cells. [Related pubchem assays (depositor defined):AID2717, AID2721]; assay type: functional; conditions: Homo sapiens
Cytochrome P450 1A2 = target: T4, Cytochrome P450 1A2 (Homo sapiens, UniProt P05177);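 further: PubChem cytochrome P450 panel assay, CYP1A2 panel member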
T4 sequence (P05177 whole entry): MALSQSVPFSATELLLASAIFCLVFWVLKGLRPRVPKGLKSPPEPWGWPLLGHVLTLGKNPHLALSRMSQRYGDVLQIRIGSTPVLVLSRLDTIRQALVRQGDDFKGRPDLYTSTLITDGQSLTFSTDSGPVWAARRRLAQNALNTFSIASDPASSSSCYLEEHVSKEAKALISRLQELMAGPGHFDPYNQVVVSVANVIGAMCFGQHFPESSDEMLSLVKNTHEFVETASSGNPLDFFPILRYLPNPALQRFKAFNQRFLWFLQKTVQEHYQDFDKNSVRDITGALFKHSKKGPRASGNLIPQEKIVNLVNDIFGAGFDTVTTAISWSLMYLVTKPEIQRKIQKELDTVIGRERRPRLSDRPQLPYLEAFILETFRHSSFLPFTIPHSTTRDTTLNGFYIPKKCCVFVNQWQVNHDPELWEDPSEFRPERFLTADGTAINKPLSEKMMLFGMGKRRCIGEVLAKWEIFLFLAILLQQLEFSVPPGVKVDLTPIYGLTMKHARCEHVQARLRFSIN

Cytochrome P450 2C19 = Cytochrome P450 2C19 (Homo sapiens, UniProt P33261); assay: Cytochrome panel assay with activity outcomes. Panel member name: p450-cyp2c19 Compounds with AC50 equal or less than 10 uM are considered active; assay type: functional
Chain of Cytochrome P450 2C19 (P33261 whole entry): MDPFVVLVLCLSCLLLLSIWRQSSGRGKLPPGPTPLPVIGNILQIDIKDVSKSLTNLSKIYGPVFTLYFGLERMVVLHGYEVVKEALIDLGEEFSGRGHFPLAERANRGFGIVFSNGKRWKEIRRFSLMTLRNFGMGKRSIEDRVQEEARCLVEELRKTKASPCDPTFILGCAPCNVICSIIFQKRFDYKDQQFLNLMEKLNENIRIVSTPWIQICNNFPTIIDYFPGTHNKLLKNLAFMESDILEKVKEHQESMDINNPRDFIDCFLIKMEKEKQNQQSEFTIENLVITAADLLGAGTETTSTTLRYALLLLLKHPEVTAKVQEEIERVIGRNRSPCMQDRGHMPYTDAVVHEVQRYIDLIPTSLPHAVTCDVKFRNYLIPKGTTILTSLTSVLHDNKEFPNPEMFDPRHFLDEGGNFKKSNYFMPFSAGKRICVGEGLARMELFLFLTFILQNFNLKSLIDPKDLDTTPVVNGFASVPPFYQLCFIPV

cells [12] = assay type: functional, cell-based
cells [13] = assay type: functional, cell-based; remark: listed apart in the source

Chain of Luciferin 4-monooxygenase (P08659 whole entry): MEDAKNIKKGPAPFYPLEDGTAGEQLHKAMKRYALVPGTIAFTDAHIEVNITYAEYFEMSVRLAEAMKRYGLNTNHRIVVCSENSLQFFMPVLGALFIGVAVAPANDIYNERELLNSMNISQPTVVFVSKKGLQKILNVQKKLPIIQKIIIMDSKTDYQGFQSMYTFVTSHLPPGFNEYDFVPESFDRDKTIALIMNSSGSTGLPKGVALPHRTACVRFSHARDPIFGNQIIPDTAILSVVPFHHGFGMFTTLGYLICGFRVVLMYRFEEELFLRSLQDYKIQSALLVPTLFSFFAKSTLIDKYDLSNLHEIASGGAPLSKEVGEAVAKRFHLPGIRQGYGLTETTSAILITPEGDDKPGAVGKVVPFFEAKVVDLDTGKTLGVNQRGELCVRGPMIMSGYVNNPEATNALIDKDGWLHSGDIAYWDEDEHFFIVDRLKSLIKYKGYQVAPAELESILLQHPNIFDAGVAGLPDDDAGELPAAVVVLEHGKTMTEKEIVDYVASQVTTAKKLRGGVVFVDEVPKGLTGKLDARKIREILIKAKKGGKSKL

## CCOC(=O)C1CCN(C(=O)CCc2nnc3ccc(NCc4ccco4)nn23)CC1
[1]
  EC50: > 112 µM (not active)
[2]
  EC50: > 112 µM (not active)

## COc1ccc(/C=C/C(=O)NC(=S)Nc2ccc(S(=O)(=O)Nc3cc(OC)ncn3)cc2)cc1
[3]
  IC50: > 47.1 µM (inactive)
[4]
  EC50: > 53 µM (inactive)

## Cc1cccn2c(=O)c(/C=C(\C#N)C(N)=O)c(N3CCN(c4cccc(Cl)c4)CC3)nc12
Nonstructural protein 1
  IC50: > 100 µM (active)

## Cn1c(=O)c2cc3ccc(Cl)cc3nc2n(C)c1=O
[3]
  IC50: > 47.1 µM (inactive)
[4]
  EC50: > 53 µM (inactive)

## O=C(COC(=O)c1ccccc1-n1cnnn1)c1ccc(F)cc1
[5]
  EC50: 4.44 µM (active)
[6]
  EC50: 7.61 µM (active)
H4
  EC50: 31.3 µM (active)
[7]
  EC50: 50.2 µM (active)

## Cn1sc(NC(=O)c2cccc(Cl)c2)nc1=O
[5]
  EC50: 12.8 µM (active)
[6]
  EC50: 7.11 µM (active)
H4
  EC50: > 120 µM (not active)

## CCCCOc1ccc2c(c1)/C(=C(\C(Cl)=C(Cl)Cl)[N+](=O)[O-])N2
[3]
  IC50: > 47.1 µM (inactive)
[4]
  EC50: 37.9 µM (active)

## O=C(CN1C(=O)NC2(CCCCCC2)C1=O)c1ccccc1
[1]
  EC50: > 112 µM (not active)
[2]
  EC50: > 112 µM (not active)

## Cc1ccc(CN(C(=O)c2csnn2)C(C(=O)NC2CCCC2)c2ccco2)cc1 (configuration not stated)
[1]
  EC50: > 112 µM (not active)
[2]
  EC50: > 112 µM (not active)

## COc1cccc(C=NNC(=O)C[n+]2ccccc2)c1O
Nonstructural protein 1
  IC50: 10.4 µM (active)

## O=C(CN1CC(=O)Oc2ccccc21)OCC(=O)c1ccccc1
Nonstructural protein 1
  IC50: 1.47 µM (active)

## COc1ccc(-c2c(C#Cc3ccccc3)c3ccccc3n2C)cc1
[8]
  CC50: 44 µM (active)
[5]
  EC50: 19.6 µM (active)
[6]
  EC50: 22.1 µM (active)
H4
  EC50: 43.1 µM (active)

## [O-][n+]1cc(-c2cc3ccccc3o2)[n+]([O-])c2c1CCCC2
[5]
  EC50: > 60 µM (not active)
[6]
  EC50: 8.68 µM (active)
H4
  EC50: 2.05 µM (active)

## Cc1c([N+](=O)[O-])cc(S(=O)(=O)Nc2ccc(-c3ccc(N4CCCC4)nn3)cc2)cc1[N+](=O)[O-]
[8]
  CC50: > 50 µM (active)
Fatty acid synthase [9]
  IC50: 0.867 µM (active)
Fatty acid synthase [10]
  IC50: 0.524 µM (active)

## O=C(COc1ccc(Br)cc1)N1CCN(Cc2c[nH]c3ccccc23)CC1
INS1
  AC50: 3.34 µM (active)

## COc1ccc(OC)c(NC(=O)CS(=O)(=O)Cc2nc(-c3ccccc3C)oc2C)c1
[1]
  EC50: > 112 µM (not active)
[2]
  EC50: > 112 µM (not active)

## CCOC(=O)c1c(NC(=O)/C=C/c2ccc3c(c2)OCO3)sc(C)c1CC
[1]
  EC50: > 112 µM (not active)
[2]
  EC50: > 112 µM (not active)
[11]
  AC50: 1.04 µM (active)
Cytochrome P450 1A2
  AC50: 12.6 µM (inconclusive)

## CCn1cc(C(=O)NCc2ccco2)c(=O)c2cc(S(=O)(=O)N3CCC(C)CC3)ccc21
Fatty acid synthase [9]
  IC50: 2.6 µM (active)
Fatty acid synthase [10]
  IC50: 3.21 µM (active)

## Cc1ccc(C(=O)Nc2ccnc(-c3cccnc3)n2)cc1
[5]
  EC50: 13.3 µM (active)
[6]
  EC50: 16.1 µM (active)
H4
  EC50: 15.4 µM (active)

## CC(C)(C)c1ccc(COC(=O)CN2C(=O)NC3(CCCC3)C2=O)cc1
Fatty acid synthase [9]
  IC50: 4.84 µM (active)
Fatty acid synthase [10]
  IC50: 5.17 µM (active)

## Cc1nc(S(=O)(=O)N2CCOCC2)c(C#N)c(C)c1Cl
[5]
  EC50: 10.7 µM (active)
[6]
  EC50: 55.7 µM (active)
H4
  EC50: > 120 µM (not active)
Cytochrome P450 2C19
  AC50: inconclusive
Cytochrome P450 1A2
  AC50: 1 µM (inconclusive)

## Cc1cc(/C(O)=C(/C([S-])=Nc2ccc(F)cc2)[n+]2ccccc2)c(C)n1-c1ccc(F)cc1
[5]
  EC50: > 120 µM (not active)
[6]
  EC50: 16.1 µM (active)
H4
  EC50: 21.1 µM (active)

## CCc1ccc(NC(=O)CSc2nc(N)c(NC(=O)c3ccc(F)c(F)c3)c(O)n2)cc1
[3]
  IC50: > 47.1 µM (inactive)
[4]
  EC50: > 53 µM (inactive)

## CCNc1ccc(S(=O)(=O)N(C)C)cc1NCC(=O)Nc1ccc(F)c(Cl)c1
Fatty acid synthase [9]
  IC50: 12.4 µM (active)
Fatty acid synthase [10]
  IC50: 18.2 µM (active)

## CCOc1ccc2[nH]c(SCC3CC3(Cl)Cl)nc2c1 (configuration not stated)
[5]
  EC50: 0.506 µM (active)
[6]
  EC50: 29.7 µM (active)
H4
  EC50: 30.2 µM (active)

## Cc1cc(C)c2cc(CN(Cc3ccco3)C(=O)NCc3ccccc3)c(O)nc2c1
[1]
  EC50: > 112 µM (not active)
[2]
  EC50: > 112 µM (not active)

## O=C(CSc1cn(Cc2ccccc2)c2ccccc12)N1CCOCC1
[5]
  EC50: 20.9 µM (active)
[6]
  EC50: 19.8 µM (active)
H4
  EC50: 16.8 µM (active)

## CCOc1ccc(CNC(=O)CCC(=O)N2Cc3cccc(OC)c3Oc3ncccc32)cc1
[3]
  IC50: > 47.1 µM (inactive)
[4]
  EC50: > 53 µM (inactive)

## CN(C)c1ccc(C=C2C=CC=C2)cc1
Nonstructural protein 1
  IC50: 31.5 µM (active)

## CCCCN(C=O)c1c(CC)nc2c(OCc3ccc(Cl)cc3Cl)cccn12
Fatty acid synthase [9]
  IC50: 6.01 µM (active)
Fatty acid synthase [10]
  IC50: 8.19 µM (active)

## CCCc1cc(O)nc(SCC(=O)N(CCC#N)c2ccc3c(c2)OCCO3)n1
[3]
  IC50: > 47.1 µM (inactive)
[4]
  EC50: > 53 µM (inactive)

## O=C(COC(=O)c1cc(F)c(F)cc1Cl)NC1CCCCCC1
Fatty acid synthase [9]
  IC50: 13.1 µM (active)
Fatty acid synthase [10]
  IC50: 6.86 µM (active)

## O=C(N/N=C/c1c(O)ccc2ccccc12)c1ccc(CO)nc1
Cells [12]
  EC50: 10.8 µM (active)
Cells [13]
  EC50: > 350 µM (not active)
Nonstructural protein 1
  IC50: 10.6 µM (active)

## COc1cccc(/C=N/NC(=O)CN2CC(c3ccccc3)CC2=O)c1O (configuration not stated)
INS1
  AC50: 6.51 µM (active)

## C[C@]12CCC(=O)C=C1CC[C@@H]1[C@@H]2[C@@H](O)C[C@]2(C=O)[C@@H](C(=O)CO)CC[C@@H]12 [ALDOSTERONE]
[5]
  EC50: > 120 µM (not active)
[6]
  EC50: > 120 µM (not active)
H4
  EC50: > 120 µM (not active)
